Measurements as given in patent publication US20090029992A1, “SUBSTITUTED PYRAZOLE COMPOUNDS” (priority 2007, published 2009).

Assays:
[1] = target: T1, N-terminal His6-tagged recombinant human KDR, residues 790-end (Homo sapiens, UniProt P35968); test: KDR kinase inhibition assay (33P-ATP filter assay); assay type: biochemical
T1 construct: recombinant human KDR, residues 790-end; His6 (N); purchased Upstate USA Inc, 706 Forest Street, Charlottesville, Va
In short: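 Radiometric filter assay: reaction started with Mg acetate (10 mM)/[γ-33P]ATP mix, run 40 min at room temperature in 8 mM MOPS pH 7.0 with 0.2 mM EDTA, MBP substrate (0.33 mg/mL) and recombinant KDR 790-end (5-10 mU). Phosphate incorporation by scintillation counting of P30 filtermats, compared with uninhibited reactions.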

[2] = target: T2, N-terminal GST-tagged recombinant human Flt3, residues 564-end (Homo sapiens, UniProt P36888); test: Flt3 kinase inhibition assay (33P-ATP filter assay); assay type: biochemical; conditions: 40 minutes at room temperature
T2 construct: recombinant human Flt3, residues 564-end; GST (N); purchased Upstate USA Inc, 706 Forest Street, Charlottesville, Va
T2 sequence (P36888 564-993 limits assumed): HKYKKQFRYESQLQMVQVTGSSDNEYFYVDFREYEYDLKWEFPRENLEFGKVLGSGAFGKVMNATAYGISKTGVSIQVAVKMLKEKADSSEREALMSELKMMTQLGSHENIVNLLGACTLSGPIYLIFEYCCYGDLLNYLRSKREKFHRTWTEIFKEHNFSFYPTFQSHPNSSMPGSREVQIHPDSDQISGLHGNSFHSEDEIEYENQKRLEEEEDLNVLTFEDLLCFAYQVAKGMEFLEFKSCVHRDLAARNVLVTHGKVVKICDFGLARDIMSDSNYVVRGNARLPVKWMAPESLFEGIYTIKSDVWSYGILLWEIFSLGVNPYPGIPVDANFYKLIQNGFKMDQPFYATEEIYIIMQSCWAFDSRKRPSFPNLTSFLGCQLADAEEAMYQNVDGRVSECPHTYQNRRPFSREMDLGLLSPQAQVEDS
In short: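 Serial compound dilutions incubated 40 min at room temperature with 5-10 mU Flt3 kinase, 50 μM peptide substrate and [γ-33P]ATP/10 mM magnesium acetate, pH 7.0. Phosphoric acid stop, filter capture and scintillation counting; activity compared with uninhibited reactions.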

HCT116 cells = test: Whole cell cytotoxicity assay, Sulforhodamine B; assay type: cell-based; conditions: Homo sapiens, HCT-116, HCT116, 96 hours incubation, SRB; for GI50: read-out: GI50 HCT116 cell growth; for IC50: read-out: IC50 values in this assay (HCT116 cell growth)
In short: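 HCT116 cells (500/well) in DMEM/10% FBS/2 mM glutamine were preincubated 24 h, then exposed to compound for 96 h at 37 °C, 5% CO2, in duplicate. Cells were fixed with TCA and stained with sulforhodamine B (A570). GI50, TGI and LC50 were derived relative to a time-zero plate and an untreated control.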

[3] = group with IC50 greater than 100 nM

T1 sequence (P35968 790-1356 limits assumed): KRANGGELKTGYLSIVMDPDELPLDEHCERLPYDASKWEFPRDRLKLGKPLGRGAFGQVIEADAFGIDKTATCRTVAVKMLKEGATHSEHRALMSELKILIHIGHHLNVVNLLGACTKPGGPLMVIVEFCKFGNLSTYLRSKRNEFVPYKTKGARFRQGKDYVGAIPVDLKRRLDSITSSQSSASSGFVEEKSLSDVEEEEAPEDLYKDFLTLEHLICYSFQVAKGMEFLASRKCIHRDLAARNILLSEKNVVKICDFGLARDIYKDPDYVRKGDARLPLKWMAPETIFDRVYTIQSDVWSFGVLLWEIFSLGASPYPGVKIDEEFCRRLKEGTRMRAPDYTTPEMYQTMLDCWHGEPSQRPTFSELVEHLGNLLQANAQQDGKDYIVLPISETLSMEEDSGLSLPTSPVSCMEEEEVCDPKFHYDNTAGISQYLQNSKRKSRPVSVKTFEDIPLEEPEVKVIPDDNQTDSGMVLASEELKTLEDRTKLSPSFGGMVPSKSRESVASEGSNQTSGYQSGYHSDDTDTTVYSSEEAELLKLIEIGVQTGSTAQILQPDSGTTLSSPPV

Row | SMILES | IC50 ([1]; 40 minutes at room temperature) | IC50 [2] | IC50 [1, 3] | GI50 (HCT116 cells) | IC50 (HCT116 cells)
1 | Cc1cc(Nc2cc(N3CCN(C)CC3)nc(-c3cc4cc(NS(=O)(=O)C5CC5)ccc4o3)n2)n[nH]1 [Example 155, N-(2-(4-(5-methyl-1H-pyrazol-3-ylamino)-6-(4-methylpiperazin-1-yl)pyrimidin-2-yl)benzofuran-5-yl)cyclopropanesulfonamide] | ≤ 100 nM | ≤ 100 nM | – | ≤ 1000 nM | –
2 | Cc1cc(Nc2cc(NC3CCOCC3)nc(-c3cc4cc(NS(=O)(=O)C5CC5)ccc4o3)n2)n[nH]1 [Example 156, N-(2-(4-(5-methyl-1H-pyrazol-3-ylamino)-6-(tetrahydro-2H-pyran-4-ylamino)pyrimidin-2-yl)benzofuran-5-yl)cyclopropanesulfonamide] | – | ≤ 100 nM | ≤ 1000 nM | – | 1000 to 10000 nM
3 | Cc1cc(Nc2cc(NC3CCOCC3)nc(-c3cccc(-c4ccccc4)c3)n2)n[nH]1 [Example 159, 2-(biphenyl-3-yl)-N^4-(5-methyl-1H-pyrazol-3-yl)-N^6-(tetrahydro-2H-pyran-4-yl)pyrimidine-4,6-diamine] | – | ≤ 100 nM | ≤ 1000 nM | – | 1000 to 10000 nM
4 | Cc1cc(C)cc(-c2nc(Nc3cc(C)[nH]n3)cc(N3CCN(C)CC3)n2)c1 [Example 169, 2-(3,5-dimethylphenyl)-N-(5-methyl-1H-pyrazol-3-yl)-6-(4-methylpiperazin-1-yl)pyrimidin-4-amine] | ≤ 100 nM | ≤ 100 nM | – | ≤ 1000 nM | –
5 | COCCN(C)c1cc(Nc2cc(C)[nH]n2)nc(-c2ccccc2)n1 [Example 171, N^4-(2-methoxyethyl)-N^4-methyl-N^6-(5-methyl-1H-pyrazol-3-yl)-2-phenyl pyrimidine-4,6-diamine] | ≤ 100 nM | ≤ 100 nM | – | – | 1000 to 10000 nM
6 | CCc1ccccc1-c1nc(Nc2cc(C)[nH]n2)cc(NC2CCOCC2)n1 [Example 174, 2-(2-ethylphenyl)-N^4-(5-methyl-1H-pyrazol-3-yl)-N^6-(tetrahydro-2H-pyran-4-yl)pyrimidine-4,6-diamine] | – | ≤ 100 nM | ≤ 1000 nM | – | 1000 to 10000 nM
7 | Cc1cc(Nc2cc(N3CCN(C)CC3)nc(-c3ccc4c(c3)OC(F)(F)O4)n2)n[nH]1 [Example 178, 2-(2,2-difluorobezo[d][1,3]dioxol-5-yl)-N-(5-methyl-1H-pyrazol-3-yl)-6-(4-methylpiperazin-1-yl)pyrimidin-4-amine] | – | ≤ 100 nM | ≤ 1000 nM | ≤ 1000 nM | –
8 | Cc1cc(Nc2cc(N3CCN(C)CC3)nc(-c3cccc(C)c3C)n2)n[nH]1 [Example 179, 2-(2,3-dimethylphenyl)-N-(5-methyl-1H-pyrazol-3-yl)-6-(4-methylpiperazin-1-yl)pyrimidin-4-amine] | ≤ 100 nM | ≤ 100 nM | – | ≤ 1000 nM | –
9 | COCCN(C)c1cc(Nc2cc(C)[nH]n2)nc(-c2cc(F)ccc2F)n1 [Example 184, 2-(2,5-difluorophenyl)-N^4-(2-methoxyethyl)-N^4-methyl-N^6-(5-methyl-1H-pyrazol-3-yl)pyrimidine-4,6-diamine] | ≤ 100 nM | ≤ 100 nM | – | – | 1000 to 10000 nM
10 | Cc1cc(Nc2cc(NC3CCOCC3)nc(-c3cc(F)ccc3F)n2)n[nH]1 [Example 185, 2-(2,5-difluorophenyl)-N^4-(5-methyl-1H-pyrazol-3-yl)-N^6-(tetrahydro-2H-pyran-4-yl)pyrimidine-4,6-diamine] | ≤ 100 nM | ≤ 100 nM | – | – | 1000 to 10000 nM
11 | COc1cc(OC)cc(-c2nc(Nc3cc(C)[nH]n3)cc(N3CCN(C)CC3)n2)c1 [Example 191, 2-(3,5-dimethoxyphenyl)-N-(5-methyl-1H-pyrazol-3-yl)-6-(4-methylpiperazin-1-yl)pyrimidin-4-amine] | ≤ 100 nM | ≤ 100 nM | – | ≤ 1000 nM | –
12 | Cc1ccc(F)c(-c2nc(Nc3cc(C)[nH]n3)cc(N3CCN(C)CC3)n2)c1 [Example 193, 2-(2-fluoro-5-methylphenyl)-N-(5-methyl-1H-pyrazol-3-yl)-6-(4-methylpiperazin-1-yl)pyrimidin-4-amine] | ≤ 100 nM | ≤ 100 nM | – | – | 1000 to 10000 nM

Continued, in another order:

Row | IC50 ([1]; 40 minutes at room temperature) | IC50 [2] | IC50 [1, 3] | SMILES | GI50 (HCT116 cells) | IC50 (HCT116 cells)
13 | – | ≤ 100 nM | ≤ 1000 nM | Cc1cc(Nc2cc(N3CCN(C)CC3)nc(-c3ccc(C#N)cc3)n2)n[nH]1 [Example 160, 4-(4-(5-methyl-1H-pyrazol-3-ylamino)-6-(4-methylpiperazin-1-yl)pyrimidin-2-yl)benzonitrile] | ≤ 1000 nM | –
14 | ≤ 100 nM | ≤ 100 nM | – | Cc1cc(Nc2cc(N3CCN(C)CC3)nc(-c3cccc([N+](=O)[O-])c3)n2)n[nH]1 [Example 162, N-(5-methyl-1H-pyrazol-3-yl)-6-(4-methylpiperazin-1-yl)-2-(3-nitrophenyl)pyrimidin-4-amine] | ≤ 1000 nM | –
15 | ≤ 100 nM | ≤ 100 nM | – | Cc1cc(Nc2cc(N3CCN(C)CC3)nc(-c3cccc(C#N)c3)n2)n[nH]1 [Example 163, 3-(4-(5-methyl-1H-pyrazol-3-ylamino)-6-(4-methylpiperazin-1-yl)pyrimidin-2-yl)benzonitrile] | ≤ 1000 nM | –
16 | ≤ 100 nM | ≤ 100 nM | – | CC(=O)c1cccc(-c2nc(Nc3cc(C)[nH]n3)cc(N3CCN(C)CC3)n2)c1 [Example 165, 1-(3-(4-(5-methyl-1H-pyrazol-3-ylamino)-6-(4-methylpiperazin-1-yl)pyrimidin-2-yl)phenyl)ethanone] | ≤ 1000 nM | –
17 | ≤ 100 nM | ≤ 100 nM | – | COC(=O)c1cccc(-c2nc(Nc3cc(C)[nH]n3)cc(N3CCN(C)CC3)n2)c1 [Example 166, methyl 3-(4-(5-methyl-1H-pyrazol-3-ylamino)-6-(4-methylpiperazin-1-yl)pyrimidin-2-yl)benzoate] | ≤ 1000 nM | –
18 | – | ≤ 100 nM | ≤ 1000 nM | Cc1cc(Nc2cc(N3CCN(C)CC3)nc(-c3ccc(F)c(F)c3)n2)n[nH]1 [Example 168, 2-(3,4-difluorophenyl)-N-(5-methyl-1H-pyrazol-3-yl)-6-(4-methylpiperazin-1-yl)pyrimidin-4-amine] | ≤ 1000 nM | –
19 | ≤ 100 nM | ≤ 100 nM | – | CCc1ccccc1-c1nc(Nc2cc(C)[nH]n2)cc(N2CCN(C)CC2)n1 [Example 175, 2-(2-ethylphenyl)-N-(5-methyl-1H-pyrazol-3-yl)-6-(4-methylpiperazin-1-yl)pyrimidin-4-amine] | – | 1000 to 10000 nM
20 | – | ≤ 100 nM | ≤ 1000 nM | Cc1cc(Nc2cc(N3CCN(C)CC3)nc(-c3cccc(OCc4ccccc4)c3)n2)n[nH]1 [Example 188, 2-(3-(benzyloxy)phenyl)-N-(5-methyl-1H-pyrazol-3-yl)-6-(4-methylpiperazin-1-yl)pyrimidin-4-amine] | – | 1000 to 10000 nM
21 | ≤ 100 nM | ≤ 100 nM | – | CCOc1cccc(-c2nc(Nc3cc(C)[nH]n3)cc(N3CCN(C)CC3)n2)c1 [Example 190, 2-(3-ethoxyphenyl)-N-(5-methyl-1H-pyrazol-3-yl)-6-(4-methylpiperazin-1-yl)pyrimidin-4-amine] | ≤ 1000 nM | –
22 | – | ≤ 100 nM | ≤ 1000 nM | Cc1cc(Nc2cc(N3CCN(C)CC3)nc(-c3cccc(OC(F)(F)F)c3)n2)n[nH]1 [Example 192, N-(5-methyl-1H-pyrazol-3-yl)-6-(4-methylpiperazin-1-yl)-2-(3-(trifluoromethoxy)phenyl)pyrimidin-4-amine] | – | 1000 to 10000 nM
